Data reported in patent US20260256790A1, “DEBIO-0123 IN COMBINATION WITH TEMOZOLOMIDE AND RADIOTHERAPY FOR USE IN TREATING GLIOMA” (Debiopharm International S.A., priority 2023, published 2026).

Legend:
SF188 cells = assay: ATP-based cell viability assay (CellTiter-Glo 2.0) in control and ATRX-deficient SF188 cells
Procedure: SF188 cells were transfected with ATRX siRNA (siATRX_1 or siATRX_2) either individually (A) or as a pool (B and C) or control siRNA (siCon) and ATRX deficiency assessed by determining relative ATRX protein levels by western blotting. Control and ATRX-deficient SF188 cells were then treated with compound of formula (I) at a range of concentrations between 0 and 1.5 uM (FIG. 7A) and at 400 nM (FIG. 7B) and drug sensitivities were assessed via an ATP-based cell viability assay or in colony formation assay.
For cell viability assessment, SF188 cells were seeded in 96-well culture plates at 100-500 cells in 100 μl of culture media per well. After overnight incubation, 100 μl of culture media containing compound of formula (I) was added to each well at the desired final concentration. After 72 h, cell viability was assessed by CellTiter-Glo 2.0 according to the manufacturer's instructions. Each condition was tested in triplicate or quadruplicate, and the average viability is presented as a percentage of vehicle-treated cells. For colony formation assessment (FIG. 7C), SF188 cells were seeded on a 6-well plate at 100 cells per well in 1 ml of culture media. After overnight incubation, 1 ml of culture media containing compound of formula (I) was added to each well at the desired final concentrations up to 400 nM. At 10 days post-treatment, cell colonies were fixed with 70% ethanol for 30 min, washed with distilled water, and stained with Coomassie Blue. The number of colonies in each well was counted manually. Each colony consisted of >50 cells (corresponds to six doublings from a single cell). Colony-forming efficiency was determined by normalizing the colony numbers to the vehicle-treated cells.

LN18 GBM cell line = assay: Colony formation with radiotherapy, LN18; format: cell-based; conditions: 0.1 μM to 5.0 μM, irradiated at 1, 2 and 4 Gy, p<0.0001
Procedure: GBM tumor cells (T98G, LN18, SNB-19 and U251) were grown as an adherent monolayer at 37° C. in a humidified atmosphere (5% CO2, 95% air). For experimental use, tumor cells were detached from culture flasks by a 5-minute treatment with trypsin-versene, in Hanks' medium without calcium or magnesium and neutralized by addition of complete culture medium. Cells were counted and viability assessed using a 0.25% trypan blue exclusion assay. All cell lines were appropriately seeded following the conditions for monolayer colony formation in 6-well plates (Ref #152795, Nunc, Dutscher) in 1.9 ml of cell culture medium, at 3 densities for evaluation of a proclonogenic effect. […]
Treatments were performed at 24 hours (D1) after seeding by addition of ×20 concentrated compound or vehicle solutions, to obtain final concentrations of 0.1 μM to 5.0 μM of Compound of formula (I) [referred to as CoF (I) in FIG. 3]. […] After 14 days of incubation, colonies were counted after being stained through incubation with 500 μl of a solution of water containing 0.05% (w/v) of methylene blue (Ref. M4159, Sigma) for 2 hours. Colonies were counted using a colony counter pen (Ref #045855, Dutscher, Brumath, France). The Surviving Fraction was calculated for each condition using the equations described below and plotted on a semi-logarithmic graph using the Linear-Quadratic model. […]

U87-MG-luc GBM cell line = assay: U87-MG-luc tumors implanted cerebrally in mice, monotherapy; format: in vivo, athymic nude mice; conditions: 30 mg/kg oral QD, 28 days, p=0.0023 on day 28
Procedure: Male athymic nude mice were injected A) subcutaneously (s.c.) or B) cerebrally (i.e.) with 1×10^5 U87-MG-luc cells in Matrigel. Animals implanted i.e. were imaged to monitor tumor establishment and growth throughout the study using an In Vivo Imaging System (IVIS) once weekly, detecting tumor bioluminescence (BLI) in photons. For animals implanted s.c., tumor growth was monitored twice weekly by caliper measurement and tumor volume calculated using the equation V=(L×W×W)/2, where V is tumor volume, L is tumor length (the longest tumor dimension) and W is tumor width (the longest tumor dimension perpendicular to L). Upon confirmation of tumor establishment, animals were randomly allocated into 3 (A, s.c.) or 2 (B, i.e.) treatment groups (n=8 animals per group) consisting of vehicle (0.5% methycellulose, 1% Tween 80 P.O. and saline I.V.) or Compound of formula (I) [CoF (I)] formulated as a suspension in 0.5% methycellulose and 1% Tween 80. The treatments were administered over a 28 day cycle and compound of formula (I) was administered orally at a dose of either 30 mg/kg (for both A and B) or 60 mg/kg (for A only), once daily (QD)). […] Mortality and observed clinical signs were recorded for individual animals in detail.

Cc1cc(Nc2ncc3c(n2)N(C)CN(c2c(Cl)cccc2Cl)C3=O)ccc1C1CCN(C)CC1 [Compound of formula (I)]
Viability of SF188 cells (SF188 cells; 0 to 1.5 uM, 72 h, CellTiter-Glo 2.0): significantly reduced the viability of SF188 cells
Cell viability of ATRX-deficient SF188 cells (SF188 cells; 400 nM, p<0.01): significantly reduced
IC50 in SF188 cells with ATRX siRNA relative to control siRNA (SF188 cells; cell viability, 72 h): less than half of control siRNA
Effect on radiotherapy (surviving fraction, colony formation) (LN18 GBM cell line): significantly increased effect of radiotherapy
Tumor size (relative BLI) vs vehicle controls at end of treatment (U87-MG-luc GBM cell line): significantly smaller tumors than vehicle controls
